Laboratory results reported in the supplement of paper PMC10307832.

How the values were obtained:
Test in all cases: relative viability (nuclei count vs DMSO), 5 days (fraction); higher = more cells survive
[1] = compound: CN(C)CC1=CC(=CC=C1)N=C(C2=CC=CC=C2)C3=C(NC4=C3C=CC(=C4)C(=O)N(C)C)O + CC(=O)c1c(C)c2cnc(Nc3ccc(N4CCNCC4)cn3)nc2n(C2CCCC2)c1=O [Palbociclib] (partner 0.5 µM)
Outline: (§1)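 A single step with final 0.05% Triton X-100, 1% formaldehyde and 1 ug/ml Hoechst fixed the cells and stained nuclei 5 days after treatment. Lung cancer cell lines in 1536-well plates had been treated by pin tool the day after seeding with one drug alone or a fixed anchor-drug dose plus five library-drug doses (not always all listed) in √10 steps, and nuclei were counted on 4× images. Relative viability is the ratio of nuclei in treated wells to nuclei in vehicle wells, taken as the median of duplicate plates.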

[2] = compound: CN(C)CC1=CC(=CC=C1)N=C(C2=CC=CC=C2)C3=C(NC4=C3C=CC(=C4)C(=O)N(C)C)O + Cc1nc(Nc2ncc(C(=O)Nc3c(C)cccc3Cl)s2)cc(N2CCN(CCO)CC2)n1 [Dasatinib] (partner 0.075 µM)
Outline: as §1

[3] = compound: CN(C)CC1=CC(=CC=C1)N=C(C2=CC=CC=C2)C3=C(NC4=C3C=CC(=C4)C(=O)N(C)C)O + Nc1nc2[nH]cc(CCc3ccc(C(=O)N[C@@H](CCC(=O)O)C(=O)O)cc3)c2c(=O)[nH]1 [Pemetrexed] (partner 0.2 µM)
Outline: as §1

[4] = compound: CN(C)CC1=CC(=CC=C1)N=C(C2=CC=CC=C2)C3=C(NC4=C3C=CC(=C4)C(=O)N(C)C)O + O=C(CCCCCCC(=O)Nc1ccccc1)NO [Vorinostat] (partner 1 µM)
Outline: as §1

Row | Cell Line | relative viability ([1]; first compound 0.08 µM) | relative viability ([1]; first compound 0.253 µM) | relative viability ([1]; first compound 0.8 µM) | relative viability ([1]; first compound 2.53 µM) | relative viability ([1]; first compound 8 µM) | relative viability ([2]; first compound 0.08 µM) | relative viability ([2]; first compound 0.253 µM) | relative viability ([2]; first compound 0.8 µM) | relative viability ([2]; first compound 2.53 µM) | relative viability ([2]; first compound 8 µM) | relative viability ([3]; first compound 0.08 µM) | relative viability ([3]; first compound 0.253 µM) | relative viability ([3]; first compound 0.8 µM) | relative viability ([3]; first compound 2.53 µM) | relative viability ([3]; first compound 8 µM) | relative viability ([4]; first compound 0.08 µM) | relative viability ([4]; first compound 0.253 µM) | relative viability ([4]; first compound 0.8 µM) | relative viability ([4]; first compound 2.53 µM) | relative viability ([4]; first compound 8 µM)
1 | NCI-H1915 | 0.533 | 0.528 | 0.555 | 0.537 | 0.48 | 0.365 | 0.369 | 0.318 | 0.323 | 0.292 | 0.51 | 0.446 | 0.629 | 0.513 | 0.417 | 0.528 | 0.512 | 0.501 | 0.516 | 0.415
2 | NCI-H1944 | 0.32 | 0.344 | 0.282 | 0.357 | 0.33 | 0.216 | 0.234 | 0.219 | 0.179 | 0.156 | 0.607 | 0.571 | 0.615 | 0.512 | 0.537 | 0.737 | 0.589 | 0.571 | 0.455 | 0.469
3 | NCI-H1975 | 0.646 | 0.398 | 0.456 | 0.574 | 0.339 | 0.372 | 0.364 | 0.341 | 0.348 | 0.31 | 0.292 | 0.327 | 0.287 | 0.301 | 0.31 | 0.709 | 0.669 | 0.705 | 0.661 | 0.604
4 | NCI-H1993 | 0.63 | 0.615 |  | 0.75 | 0.592 | 0.505 | 0.602 | 0.512 | 0.607 | 0.729 | 0.684 | 0.576 |  | 0.495 | 0.634 | 0.904 | 0.79 |  | 1.14 | 0.994
5 | NCI-H2009 | 0.165 | 0.236 | 0.258 | 0.198 | 0.192 | 0.238 | 0.328 | 0.349 | 0.333 | 0.253 | 0.982 | 0.993 | 1.08 | 1.03 | 0.957 | 0.76 | 0.724 | 0.756 | 0.727 | 0.708
6 | NCI-H2023 | 0.332 | 0.325 | 0.357 | 0.289 | 0.36 | 0.538 | 0.549 | 0.576 | 0.445 | 0.466 | 0.228 | 0.251 | 0.238 | 0.19 | 0.246 | 0.594 | 0.685 | 0.765 | 0.368 | 0.589
7 | NCI-H2085 | 0.452 | 0.492 | 0.476 | 0.5 | 0.559 | 0.226 | 0.285 | 0.257 | 0.252 | 0.278 | 0.87 | 0.948 | 0.832 | 0.908 | 0.901 | 0.785 | 0.777 | 0.785 | 0.819 | 0.773
8 | NCI-H2087 | 0.233 | 0.236 | 0.214 | 0.289 | 0.263 | 0.953 | 0.835 | 0.914 | 0.794 | 0.793 | 0.629 | 0.644 | 0.617 | 0.721 | 0.68 | 0.53 | 0.668 | 0.69 | 0.796 | 0.846
